Results as given in PubChem BioAssay (NCI).
Where “and” joins values, the source holds several entries; their conditions need not be identical. Identical values can stand only once.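 Where inhibition never reached the appropriate level, the endpoint shown equals the highest concentration tested. Otherwise, values were interpolated linearly from a five-concentration, 48-hour dose response in 96-well plates. Here, GI50 denotes the concentration required for 50% inhibition of growth. At the TGI there is no net growth.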

Assays:
Assay in all cases: DTP human tumour cell line panel, 48 h
DLD-1 colon = system: DLD-1 colon
DMS 114 small cell lung = system: DMS 114 small cell lung
HOP-62 NSCLC = system: HOP-62 NSCLC
KM20L2 colon = system: KM20L2 colon
LXFL 529 NSCLC = system: LXFL 529 NSCLC
M19-MEL melanoma = system: M19-MEL melanoma
MOLT-4 leukemia = system: MOLT-4 leukemia
OVCAR-3 ovarian = system: OVCAR-3 ovarian
RPMI-8226 leukemia = system: RPMI-8226 leukemia
RXF 393 renal = system: RXF 393 renal
SK-MEL-2 melanoma = system: SK-MEL-2 melanoma
SNB-78 CNS = system: SNB-78 CNS
XF 498 CNS = system: XF 498 CNS

| Structure (SMILES) | TGI (DLD-1 colon) | TGI (DMS 114 small cell lung) | TGI (HOP-62 NSCLC) | TGI (KM20L2 colon) | TGI (LXFL 529 NSCLC) | GI50 (M19-MEL melanoma) | TGI (M19-MEL melanoma) | TGI (MOLT-4 leukemia) | TGI (OVCAR-3 ovarian) | TGI (RPMI-8226 leukemia) | GI50 (RXF 393 renal) | TGI (RXF 393 renal) | GI50 (SK-MEL-2 melanoma) | TGI (SK-MEL-2 melanoma) | TGI (SNB-78 CNS) | TGI (XF 498 CNS) |
| --- | --- | --- | --- | --- | --- | --- | --- | --- | --- | --- | --- | --- | --- | --- | --- | --- |
| CC(C)=CCSC1CC2C(CC1(C)O)C2(C)C (stereo unspecified) | 33.4 µM and 27.4 µM | 30.7 µM and 21.7 µM | 31.8 µM and 31.2 µM | 30.8 µM and 34.9 µM | 31.7 µM and 27.1 µM | 1.86 µM and 4.26 µM | 3.31 µM and 19.3 µM | 40.9 µM and 67.5 µM | 31.2 µM and 23.6 µM | 48.5 µM and 61.6 µM | 2.01 µM and 14.9 µM | 11.2 µM and 28.4 µM | 22.8 µM and 10.2 µM | 44.5 µM and 24.7 µM | 41.2 µM and 26.3 µM | 18 µM and 16.6 µM |
| COc1ccc(C(C#N)NNc2nc(C)cc(=O)[nH]2)cc1OC (stereo unspecified) | > 100 µM | > 100 µM | > 100 µM | > 100 µM | > 100 µM | – | > 100 µM | > 100 µM | > 100 µM | > 100 µM | – | > 100 µM | – | > 100 µM | > 100 µM | – |
| CC(=O)NC1=C(C)C(=O)c2c(nc3n2CCC3O)C1=N (stereo unspecified) | 25.1 µM | 13.4 µM | > 100 µM | 36.9 µM | – | – | 4.94 µM | > 100 µM | 11.1 µM | > 100 µM | – | – | – | 22 µM | 8.56 µM | 9.04 µM |
| NC(=O)N1N=C2c3ccccc3SC[C@H]2[C@@H]1c1ccccc1 | 91 µM | 79.9 µM | 65.6 µM | 39.8 µM | 94.2 µM | – | > 100 µM | 77.4 µM | 35.1 µM | 87.5 µM | – | 26 µM | – | – | 93.3 µM | 56.8 µM |
